# Measurements: patent EP1388586A2, “Identification of broadly reactive DR restricted epitopes” (priority 1998, dated 1999)
# Read-outs that look alike come from different tables or passages of the source. Ends that are not written are not given here.
# Key:
# [1] = molecular target: T1, DRB1*0101 (DR1) (Homo sapiens, UniProt P01903+P01911, A100R/D57E/F55L/F60I/F76Y/I96L/L162R/M171V/P40L/Q125E/R42F/V115G/Y59C); experiment: Class II peptide-binding assay, DR1;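 note: competition assay: unlabeled test peptides inhibit binding of a radiolabeled probe peptide to purified DR, with half-maximal inhibition taken as an approximate dissociation constant Kd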
# T1 construct: used as sources of human HLA class II molecules; endogenous in cells; host or cells: LG2 (EBV-transformed homozygous B cell line)
# Description: (§1) Class II peptide-binding assays. […] These assays were chosen as to be representative of the most common DR alleles.
# (§2) Radiolabeled peptides were iodinated using the chloramine-T method. […] In appropriate stoichiometric conditions, the IC50 of an unlabeled test peptide to the purified DR is a reasonable approximation of the affinity of interaction (Kd). Peptides were tested in two to four completely independent experiments. […] Final detergent concentration in the incubation mixture was 0.05% Nonidet P-40. Assays were performed at pH 7.0 with the exception of DR3, which was performed at pH 4.5, and DRw53, which was performed at pH 5.0.
# (§3) All subsequent inhibition and direct binding assays were the performed using these class II concentrations.
# [2] = molecular target: T2, DRB1*1501 (DR2w2b) (Homo sapiens, UniProt P01903+P01911); experiment: Class II peptide-binding assay, DR2w2b (DR2w2B1); settings: read-out: In IC50 Format DR2w2B1 nM; Table VIII; values in parentheses read as lower bounds
# T2 construct: expressed in transfected cells; host or cells: L466.1 transfected fibroblasts
# Description: as §1
# (§4) In appropriate stoichiometric conditions, the IC50 of an unlabeled test peptide to the purified DR is a reasonable approximation of the affinity of interaction (Kd). Peptides were tested in two to four completely independent experiments. […] Final detergent concentration in the incubation mixture was 0.05% Nonidet P-40. Assays were performed at pH 7.0 with the exception of DR3, which was performed at pH 4.5, and DRw53, which was performed at pH 5.0.
# as §3
# [3] = molecular target: T3, DRB5*0101 (DR2w2a) (Homo sapiens, UniProt P01903+Q30154); experiment: Class II peptide-binding assay, DR2w2a (DR2w2B2);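 note: competitive binding assay: unlabeled peptide inhibiting binding of a radiolabeled probe peptide to purified DR molecules at pH 7.0, IC50 approximating Kd, lower means stronger binding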
# T3 construct: used as sources of human HLA class II molecules; endogenous in cells; host or cells: GM3107 (EBV-transformed homozygous B cell line)
# [4] = molecular target: T4, DRB1*1101 (DR5w11) (Homo sapiens, UniProt P01903+P01911, A100R/A169T/A87E/I96F/K41T/L162R/M171V/P40S/Q125H/Q178H/Q39Y/Q99D/R42S/S66Y/T262R/V115G/W38E); experiment: Class II peptide-binding assay, DR5w11;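 note: competition by unlabeled test peptide against iodinated probe peptide binding to affinity-purified HLA-DR, class II amount titrated beforehand, half-maximal inhibitory concentration read as approximate Kd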
# T4 construct: used as sources of human HLA class II molecules; endogenous in cells; host or cells: SWEIG (EBV-transformed homozygous B cell line)
# T4 sequence (P01903 26-254, other chains not shown): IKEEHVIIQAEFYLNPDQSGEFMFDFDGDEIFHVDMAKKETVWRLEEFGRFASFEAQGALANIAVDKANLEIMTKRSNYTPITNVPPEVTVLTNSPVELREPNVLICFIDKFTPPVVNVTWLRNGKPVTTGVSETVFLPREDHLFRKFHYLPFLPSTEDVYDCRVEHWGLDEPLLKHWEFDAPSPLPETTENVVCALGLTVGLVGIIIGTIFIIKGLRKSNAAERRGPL
# Description: as §1, §2, §3
# [5] = molecular target: DRB1*0701 (DR7) (Homo sapiens, UniProt P01903+P01911, A100R/A102G/A103Q/D57E/D86V/E43K/F76Y/K127E/L162R/M171V/P40G/Q125H/Q99D/R33Q/R42Y/R54Q/S133A/S66F/T210M/V115G/Y107V/Y59L/Y89S); experiment: Class II peptide-binding assay, DR7;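 note: unlabeled peptides compete with an iodinated probe peptide for binding to affinity-purified HLA-DR at neutral pH, DR amount titered to bind a small tracer fraction, IC50 approximating Kd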
# [6] = molecular target: T5, DRB1*0802 (DR8w2) (Homo sapiens, UniProt P01903+P01911, A100R/A103L/A169T/F76Y/H45Y/I96F/K41T/L162R/M171V/P40S/Q125H/Q178H/Q39Y/Q99D/R218S/R42G/S66Y/V115G/W38E); experiment: Class II peptide-binding assay, DR8w2
# T5 construct: used as sources of human HLA class II molecules; endogenous in cells; host or cells: OLL (EBV-transformed homozygous B cell line)
# Description: as §1, §2, §3
# DR8w2 and DR8w3. The β1 specificity of the DR8w2 and DR8w3 assays is obvious in that no β3 (and/or B4 and β5) molecule is expressed.
# [7] = molecular target: DRB1*1302 (DR6w19) (Homo sapiens, UniProt P01903+P01911, A100E/A169T/K41T/L162R/M171V/P40S/Q125H/Q178H/Q39Y/Q99D/R42S/S66N/T262R/V115G/W38E/Y61H); type: binding
# Chain of DRB1*1302 (DR6w19) (P01903 26-254, other chains not shown): as above
# Description: The lysates were cleared of debris and nuclei by centrifugation at 10,000 x g for 20 min.
# Affinity purification of HLA-DR molecules.
# as §1, §2, §3
# DR6w19. The DR6w19 assay utilizes as the source of class II molecules the EBV transformed homozygous cell line H0301, which co-expresses DRB30301 (DR52a). While the radiolabeled ligand used in the DR6w19 assay is different than that used for the DR52a assay, the ligand is related (i.e., is a single substitution analog) to a high affinity DR52a binder. As was done in the case of DR4w15, the specificity of the assay was investigated by analyzing the binding capacity of a panel of naturally occurring peptides for DR6w19 and DR52a.
# [8] = molecular target: T6, DRB1*0401 (DR4w4) (Homo sapiens, UniProt P01903+P01911, A100K/A169T/F76Y/I96L/K127E/L162R/M171V/N62H/P40V/Q125Y/R42H/S133A/S149N/S66Y/V115G/V209L/W38E); experiment: Class II peptide-binding assay, DR4w4;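 note: unlabeled test peptides compete with a radiolabeled probe peptide for binding to affinity-purified HLA-DR, with DR amount titrated to capture a small fraction of label, IC50 approximating Kd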
# T6 construct: used as sources of human HLA class II molecules; endogenous in cells; host or cells: PREISS (EBV-transformed homozygous B cell line)
# Description: as §1, §2, §3
# [9] = molecular target: T7, DRB10404 (DR4w14) (Homo sapiens, UniProt P01903+P01911, A100R/A169T/F76Y/I96L/K127E/L162R/M171V/N62H/P40V/Q125Y/R42H/S133A/S149N/S66Y/V209L/W38E); experiment: Class II peptide-binding assay, DR4w14; settings: read-out: DR4w14 nM (In IC50 Format); purified HLA DR4w14;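 note: unlabeled peptides compete with a radiolabeled probe for binding to affinity-purified HLA-DR, neutral pH, class II amount titrated to bind a small fraction of label, IC50 approximates Kd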
# T7 construct: used as sources of human HLA class II molecules; endogenous in cells; host or cells: BIN40 (EBV-transformed homozygous B cell line)
# [10] = molecular target: T8, DRB4*0101 (DRw53) (Homo sapiens, UniProt P01903+P13762, G164S); type: binding; settings: read-out: DRw53 nM (In IC50 Format)
# T8 construct: expressed in transfected cells; host or cells: L257.6 transfected fibroblasts
# Description: as §1, §2, §3
# [11] = molecular target: DRB1*0405 (DR4w15) (Homo sapiens, UniProt P01903+P01911, A100R/A169T/D86S/F76Y/I96L/K127E/L162R/M171V/N62H/P40V/Q125Y/R42H/S133A/S149N/S66Y/V115G/V209L/W38E); experiment: Class II peptide-binding assay, DR4w15; settings: Table V B) Correct Predictions; read-out: Binding Capacity (IC50% nM) DR4w15
# Description: as §1, §2, §3
# DR4w15. The β4 product DRw53 is co-expressed with DR4w15 and the determination of the specificity of the DR4w1 binding assay is complicated in that the same radiolabeled ligand is used for both the DR4w15 and DRw53 binding assays.
# [12] = system: panel of purified HLA DR molecules; type: binding, human;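 note: competitive inhibition of radiolabeled probe peptide binding to purified HLA DR molecules, with inhibitory potency of unlabeled peptides taken as an approximation of affinity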
# [13] = molecular target: T9, DRB1*1201 (DR5w12) (Homo sapiens, UniProt P01903+P01911, A100R/A169T/D57E/D86V/F55L/H45Y/K41T/L162R/M171V/P40S/Q125H/Q178H/Q39Y/Q99D/R42G/S66L/T262R/V114A/V67L/W38E/Y59H/Y61H/Y89S); experiment: Class II peptide-binding assay, DR5w12; settings: Table V B) Correct Predictions; read-out: Binding Capacity (IC50% nM) DR5w12
# T9 construct: used as sources of human HLA class II molecules; endogenous in cells; host or cells: Herluf (EBV-transformed homozygous B cell line)
# Description: as §1, §4, §3
# [14] = read-out: In IC50 Format DR5w11 nM, Table VIII, values in parentheses read as lower bounds
# [15] = read-out: In IC50 Format DR7 nM, Table VIII, values in parentheses read as lower bounds
# [16] = read-out: In IC50 Format DR8w2 nM, Table VIII, values in parentheses read as lower bounds
# [17] = Table V B) Correct Predictions, read-out: Binding Capacity (IC50% nM) DR1
molecule,measurement,setting,value
CC(C)C[C@H](NC(=O)[C@H](C)NC(=O)[C@H](CCC(N)=O)NC(=O)[C@H](Cc1c[nH]cn1)NC(=O)[C@@H]1CCCN1C(=O)[C@H](CC(N)=O)NC(=O)[C@H](CCCNC(=N)N)NC(=O)[C@H](Cc1ccccc1)NC(=O)[C@H](CC(C)C)NC(=O)[C@H](CCC(N)=O)NC(=O)[C@H](CC(=O)O)NC(=O)[C@@H](N)Cc1c[nH]c2ccccc12)C(=O)N[C@@H](CC(C)C)C(=O)N[C@@H](Cc1c[nH]cn1)C(=O)N[C@H](C(=O)O)[C@@H](C)O [Peptide 39.0354],IC50,"[1]; read-out: In IC50 Format DR1 nM, Table VIII, values in parentheses read as lower bounds",> 50000 nM
same,IC50,[2],6070 nM
same,IC50,"[3]; read-out: In IC50 Format DR2w2B2 nM, Table VIII, values in parentheses read as lower bounds",> 28600 nM
same,IC50,[4]; [14],> 25000 nM
same,IC50,[5]; [15],> 14700 nM
same,IC50,[6]; [16],> 54400 nM
CC[C@H](C)[C@H](NC(=O)[C@H](CC(C)C)NC(=O)[C@H](C)NC(=O)[C@@H](N)CC(C)C)C(=O)N[C@@H](Cc1c[nH]cn1)C(=O)N[C@@H](Cc1c[nH]cn1)C(=O)N[C@@H](CC(N)=O)C(=O)N[C@H](C(=O)N[C@@H](Cc1c[nH]cn1)C(=O)N[C@@H](CC(C)C)C(=O)N[C@@H](CS)C(=O)N[C@@H](Cc1ccccc1)C(=O)N[C@H](C(=O)N[C@@H](Cc1c[nH]cn1)C(=O)N[C@H](C(=O)O)[C@@H](C)O)C(C)C)[C@@H](C)O [Peptide 39.0352],IC50,[2],91.9 nM
same,IC50,[4]; [14],8000 nM
same,IC50,"[7]; read-out: In IC50 Format DR6w19 nM, Table VIII, values in parentheses read as lower bounds",4.7 nM
same,IC50,[5]; [15],1250 nM
same,IC50,[6]; [16],1480 nM
YARFQRQTTLKAAA-NH2 [Peptide 717.10],IC50,"[1]; read-out: DR1 nM (In IC50 Format), purified HLA DR1",2.9 nM
same,IC50,"[3]; read-out: DR2w2B2 nM (In IC50 Format), purified HLA DR2w2β2",55.6 nM
same,IC50,"[8]; read-out: DR4w4 nM (In IC50 Format), purified HLA DR4w4",5.6 nM
same,IC50,[9],12.8 nM
same,IC50,"[4]; read-out: DR5w11 nM (In IC50 Format), purified HLA DR5w11",8.7 nM
same,IC50,"[5]; read-out: DR7 nM (In IC50 Format), purified HLA DR7",3570 nM
same,IC50,[10],6.5 nM
RVYQEPQVSPPQRAET [Peptide 1136.59.01a],IC50,[1]; [17],130 nM
same,IC50,[11],3140 nM
same,Total Alleles Bound,[12],3
LAAIIFLFGPPTALRS [Peptide 1136.28],IC50,[1]; [17],0.23 nM
same,IC50,"[3]; Table V B) Correct Predictions, read-out: Binding Capacity (IC50% nM) DR2w2a",1480 nM
same,IC50,"[8]; Table V B) Correct Predictions, read-out: Binding Capacity (IC50% nM) DR4w4",849 nM
same,IC50,[11],6670 nM
same,IC50,[13],4480 nM
same,IC50,"[7]; Table V B) Correct Predictions, read-out: Binding Capacity (IC50% nM) DR6w19",3180 nM
same,IC50,"[5]; Table V B) Correct Predictions, read-out: Binding Capacity (IC50% nM) DR7",3620 nM
same,IC50,"[6]; Table V B) Correct Predictions, read-out: Binding Capacity (IC50% nM) DR8w2",7540 nM
same,Total Alleles Bound,[12],3
